Experimental data taken from PMC7918049, “Juncaceae Species as Promising Sources of Phenanthrenes: Antiproliferative Compounds from Juncus maritimus Lam” (Molecules, 2021).
Read-outs that look alike come from different tables or passages of the source.

Experiments:
[1] = tested on: HeLa human cervix carcinoma cells; assay: MTT antiproliferative assay, HeLa; type: cell-based; conditions: 72 h, mean of four parallel experiments, read-out: IC50 (µM) ± SD HeLa
Protocol: (§1) Breast cancer cell line MCF-7 (ATCC®® HTB-22) and the drug-resistant subline of the human breast cancer MCF-7 (ECACC 86012803; KCR) were purchased from LGC Promochem (Teddington, UK). Both cell lines were cultured in Eagle’s Minimal Essential Medium (EMEM, containing 4.5 g/L glucose) supplemented with a non-essential amino acid mixture, a selection of vitamins, and 10% heat-inactivated fetal bovine serum. In every third passage, 0.56 µg/mL doxorubicin was added to the medium in order to maintain the ABCB1 (P-glycoprotein) expression in KCR cells. A2780 human ovarian cancer cell line (ECACC European Collection of Authentical Cell Culture, Sigma Cat. no. 93112519) and the cisplatin-resistant human ovarian cancer cell line A2780cis (ECACC European Collection of Authentical Cell Culture, Sigma Cat. no. 93112517) were purchased from Merck KGaA (Darmstadt, Germany). The human ovarian cancer cell lines were cultured in RPMI 1640 medium supplemented with 10% heat-inactivated fetal bovine serum. The RPMI 1640 medium of the cisplatin-resistant cell line A2780 was supplemented with 1 µM cisplatin. HeLa (ATCC® CCL-2™) human cervix carcinoma, HTB-26 breast adenocarcinoma, T-47D (ATCC® HTB-133™) ductal carcinoma, and MRC-5 human embryonal lung fibroblast cell lines (ATCC® CCL-171) were purchased from LGC Promochem (Teddington, UK). The cells were cultured in Eagle’s Minimal Essential Medium (EMEM, containing 4.5 g/L glucose) supplemented with a non-essential amino acid mixture, a selection of vitamins, and 10% heat-inactivated fetal bovine serum. HTB-26 cell line was cultured in RPMI 1640 medium supplemented with 10% heat-inactivated fetal bovine serum. T-47D cells were cultured in RPMI 1640 medium supplemented with 10% heat-inactivated fetal bovine serum, 2 mM L-glutamine, 1 mM Na-pyruvate, and 100 mM Hepes. All of the cells were incubated at 37 °C, in a 5% CO2, 95% air atmosphere.
(§2) The antiproliferative effect of the compounds was determined on the human breast (MCF-7, KCR, T-47D, HTB-26), cervical (HeLa), and ovarian (A2780, A2780cis) cancer cells, and on MRC-5 (human embryonic lung fibroblast) cell line. The adherent cells were cultured in 96-well flat-bottomed microtiter plates, using EMEM supplemented with 10% heat-inactivated fetal bovine serum or RPMI 1640 supplemented with 10% heat-inactivated fetal bovine serum, respectively. The density of the cells was adjusted to 6 × 10^3 cells in 100 μL per well, the cells were seeded for 24 h at 37 °C, 5% CO2, then the medium was removed from the plates and fresh medium (100 μL per well) was added to the cells. The effects of increasing concentrations of compounds on cell proliferation were tested in 96-well flat-bottomed microtiter plates. The compounds were diluted in the appropriate medium, the dilutions of compounds were performed in separate plates and then added to the cells. The starting concentration of the compounds was 100 μM, and two-fold serial dilution was performed (concentration range: 100-0.19 μM). The culture plates were incubated at 37 °C for 72 h; at the end of the incubation period, 20 μL of MTT (thiazolyl blue tetrazolium bromide, Sigma) solution (from a stock solution of 5 mg/mL) was added to each well. After incubation at 37 °C for 4 h, 100 μL of sodium dodecyl sulfate (SDS) (Sigma) solution (10% in 0.01 M HCI) were added to each well and the plates were further incubated at 37 °C overnight. Cell growth was determined by measuring the optical density (OD) at 540/630 nm with Multiscan EX ELISA reader (Thermo Labsystems, Cheshire, WA, USA). Mean IC50 values were obtained by best fitting the dose-dependent inhibition curves in GraphPadPrism5 program (GraphPad Software version 5.00 for Windows, San Diego, CA, USA) from four parallel experiments for each cell line. Results are expressed in terms of IC50, defined as the inhibitory dose that reduces the proliferation of the cells exposed to the tested compounds by 50% [14].

[2] = tested on: HTB-26 breast adenocarcinoma cells; assay: MTT antiproliferative assay, HTB-26; type: cell-based, human; conditions: HTB-26, mean of four parallel experiments, read-out: IC50 (µM) ± SD HTB-26
Protocol: as §1, §2

[3] = tested on: T-47D ductal carcinoma cells; assay: MTT antiproliferative assay, T-47D; type: cell-based, human; conditions: 72 h, mean of four parallel experiments, read-out: IC50 (µM) ± SD T-47D
Protocol: as §1, §2

[4] = tested on: A2780 human ovarian cancer cell line; assay: MTT antiproliferative assay, A2780; type: cell-based; conditions: 72 h, A2780, mean of four parallel experiments, read-out: IC50 (µM) ± SD A2780
Protocol: as §1, §2

[5] = tested on: cisplatin-resistant human ovarian cancer cell line A2780cis; assay: MTT antiproliferative assay, A2780cis; type: cell-based; conditions: 72 h, mean of four parallel experiments, read-out: IC50 (µM) ± SD A2780cis
Protocol: as §1, §2

[6] = tested on: Breast cancer cell line MCF-7; assay: MTT antiproliferative assay, MCF-7; type: cell-based, human; conditions: MCF-7, mean of four parallel experiments, read-out: IC50 (µM) ± SD MCF-7
Protocol: as §1, §2

[7] = tested on: KCR, drug-resistant subline of the human breast cancer MCF-7; assay: MTT antiproliferative assay, KCR; type: cell-based; conditions: mean of four parallel experiments, read-out: IC50 (µM) ± SD KCR
Protocol: as §1, §2

[8] = tested on: MRC-5 human embryonal lung fibroblast cell line; assay: MTT antiproliferative assay, MRC-5 normal cells; type: cell-based; conditions: for IC50: MRC-5 normal fibroblasts, mean of four parallel experiments, read-out: IC50 (µM) ± SD MRC-5
Protocol: as §1, §2

[9] = tested on: HeLa, HTB-26, T-47D, A2780, A2780cis, MCF-7, KCR and MRC-5 cell lines; assay: MTT antiproliferative assay, all cell lines investigated (overall statements); type: cell-based, human; conditions: 72 h, all cell lines tested
Protocol: Breast cancer cell line MCF-7 (ATCC®® HTB-22) and the drug-resistant subline of the human breast cancer MCF-7 (ECACC 86012803; KCR) were purchased from LGC Promochem (Teddington, UK). Both cell lines were cultured in Eagle’s Minimal Essential Medium (EMEM, containing 4.5 g/L glucose) supplemented with a non-essential amino acid mixture, a selection of vitamins, and 10% heat-inactivated fetal bovine serum. In every third passage, 0.56 µg/mL doxorubicin was added to the medium in order to maintain the ABCB1 (P-glycoprotein) expression in KCR cells. A2780 human ovarian cancer cell line (ECACC European Collection of Authentical Cell Culture, Sigma Cat. no. 93112519) and the cisplatin-resistant human ovarian cancer cell line A2780cis (ECACC European Collection of Authentical Cell Culture, Sigma Cat. no. 93112517) were purchased from Merck KGaA (Darmstadt, Germany). The human ovarian cancer cell lines were cultured in RPMI 1640 medium supplemented with 10% heat-inactivated fetal bovine serum. […]
The antiproliferative effect of the compounds was determined on the human breast (MCF-7, KCR, T-47D, HTB-26), cervical (HeLa), and ovarian (A2780, A2780cis) cancer cells, and on MRC-5 (human embryonic lung fibroblast) cell line. […] Cell growth was determined by measuring the optical density (OD) at 540/630 nm with Multiscan EX ELISA reader (Thermo Labsystems, Cheshire, WA, USA). […]

[10] = tested on: Zymoseptoria tritici; set-up: method as in PMID 28484977; conditions: cited from earlier work
[11] = tested on: hepatitis C (HCV) replication; set-up: method as in PMID 30842319; conditions: cited from earlier work

Structure (SMILES)	IC50 ([1]; Homo sapiens)	IC50 ([2]; Homo sapiens, HTB26, 72 h)	IC50 ([3]; Homo sapiens, T47D)	IC50 ([4]; Homo sapiens)	IC50 ([5]; Homo sapiens)	IC50 ([6]; Homo sapiens, MCF7, 72 h)	IC50 ([7]; Homo sapiens, MCF7, 72 h)	selectivity: effect on MRC-5 normal lung fibroblasts compared to cancer cell lines (in words) ([8]; 72 h, MRC-5 versus cancer cell lines)	IC50 ([8]; Homo sapiens, MRC5, 72 h)	IC50 [5]	IC50 ([6]; 72 h)	antiproliferative activity across the cell lines investigated (in words) [9]	in vitro antifungal activity against Zymoseptoria tritici (in words) [10]	IC50 [1]	IC50 ([2]; 72 h)	IC50 [3]	IC50 [4]	IC50 ([7]; 72 h)	IC50 ([8]; 72 h)	inhibition of hepatitis C (HCV) replication (in words) [11]
C=Cc1cc(O)c(CO)c2c1-c1ccc(O)c(C)c1CC2 [Compound 1, maritin A]	57 ± 1.3 µM	48.7 ± 1.6 µM	12.8 ± 0.9 µM	21.5 ± 0.4 µM	40.1 ± 0.4 µM	34.7 ± 3 µM	57.6 ± 0.7 µM	less antiproliferative effect on MRC-5 normal lung fibroblasts compared to the other cancer cell lines	75.4 ± 1.8 µM											
C=Cc1c(C)ccc2c1CCc1c-2ccc(O)c1C [Compound 2, maritin B]	11 ± 0.9 µM	> 100 µM	> 100 µM	> 100 µM	> 100 µM	97 ± 0.3 µM	> 100 µM		> 100 µM											
Cc1c(O)cc2ccc3c(C)c(O)cc4c3c2c1C(O)C4 (stereo not drawn) [Compound 3, maritin C]	43.2 ± 0.7 µM	35.9 ± 1.5 µM	17 ± 0.6 µM	23.7 ± 0.1 µM	< 20 µM		> 100 µM		15 ± 0.2 µM	18.6 ± 0.1 µM										
C=Cc1cc(O)cc2c1-c1ccc(Oc3cc4c(c(C)c3O)CCc3cc(O)cc(C=C)c3-4)c(C)c1CC2 [Compound 4, maritin D]	22.5 ± 1.2 µM	25.1 ± 0.3 µM	9.1 ± 0.4 µM	14.1 ± 1.3 µM	< 20 µM	< 20 µM	16.2 ± 0.6 µM		17.1 ± 3.1 µM	13.3 ± 0.1 µM	14.2 ± 0.3 µM	substantial antiproliferative activity against all cell lines investigated								
C=Cc1c(C)c(O)cc2c1-c1ccc(O)c(C)c1CC2 [Compound 5, juncusol]	0.5 µM		25 ± 0.4 µM																	
C=Cc1cc(O)cc2c1-c1ccc(O)c(C)c1CC2 [Compound 6, effusol]	2.3 ± 0.7 µM	57 ± 2.73 µM											significant in vitro antifungal activity							
Cc1c(O)ccc2c1CCc1cc(O)cc(C=O)c1-2 [Compound 7, 2,7-dihydroxy-1-methyl-5-aldehyde-9,10-dihydrophenanthrene]	24.7 ± 0.5 µM	85.3 ± 4.5 µM	26.6 ± 1.1 µM	30 ± 3.6 µM	32.3 ± 2.3 µM	38 ± 2 µM	70.6 ± 3.1 µM		71.1 ± 1.3 µM											
C=Cc1cc(O)c(C)c2c1-c1ccc(O)c(C)c1CC2 [Compound 8, 2,7-dihydroxy-1,8-dimethyl-5-vinyl-9,10-dihydrophenanthrene]	> 100 µM	> 100 µM	57 ± 7.1 µM	> 100 µM	> 100 µM	69.5 ± 1.7 µM	> 100 µM		> 100 µM											
C=Cc1cc(C)cc2c1-c1ccc(O)c(C)c1CC2 [Compound 9, juncunol]	76.7 ± 1.8 µM	75 ± 5 µM	41.4 ± 5.8 µM	43.5 ± 1.1 µM	52.8 ± 2.4 µM	45.7 ± 2.4 µM	68.4 ± 2.5 µM		78.4 ± 3.7 µM											
C=Cc1cc(O)cc2c1-c1cc(-c3cc4c(c(C)c3O)CCc3cc(O)cc(C=C)c3-4)c(O)c(C)c1CC2 [Compound 11, effususin A]	25.2 ± 0.6 µM	24.7 ± 2.1 µM	6.2 ± 0.1 µM	25.6 ± 2.4 µM	< 20 µM	< 20 µM	19.6 ± 0.9 µM		20.1 ± 1.6 µM	16.3 ± 0.3 µM		substantial antiproliferative activity against all cell lines investigated								
N.N.[Cl][Pt][Cl] [cisplatin, reference compound]										7.3 ± 0.2 µM	0.9 µM			2.3 ± 0.1 µM	20.1 ± 2.3 µM	5.9 ± 0.1 µM	3.6 ± 0.3 µM	6.5 ± 0.3 µM	0.6 µM	
C=Cc1c(C)c(O)cc2ccc3c(C)c(O)ccc3c12 [dehydrojuncusol]																				novel inhibitor of hepatitis C (HCV) replication
